Several values for one entry are separate records, joined by “and”; a condition that tells them apart may be missing. Identical values can stand only once. Bridge positions count the residues as written; N and C are the ends. Ends that are not written are not given here. Glu‑DTPA‑Gd = N-terminal Glu-DTPA-Gd chelate (gadolinium DTPA complex on glutamic acid)
Key:
[1] = system: perfused Langendorff rat heart; test: Equilibrium binding to perfused Langendorff rat heart; conditions: perfused 10 minutes, recycled
Procedure: After deep anesthesia with pentobarbital (80 mg/kg ip), the chest cavity of a male Sprague Dawley rat (300 g) was opened, retracted and the heart was removed immediately and placed in an ice-cold normal Krebs-Henseleit (K-H) solution (NaCl, 118 mM; KCl, 4.7 mM; CaCl2, 2.5 mM; MgSO4, 1.2 mM; KH2PO4, 1.2 mM; NaHCO3, 25 mM; glucose, 5.5 mM). A K-H buffer filled 20 Gauge needle was inserted into the apex of the heart penetrating into the bottom of the chamber. This was attached to a pressure transducer used to record and monitor heart function. Perfusion pressure (˜60 mmHg) was monitored using a second transducer. The heart was perfused at a constant flow rate of 10-12 mL/min with 37° C. […]
Two peptide test articles, a high collagen binding peptide (SEQ ID NO: 144) and a low collagen binding peptide (SEQ ID NO: 173), are compared to GdDTPA. […] The amount of radioactivity added to the buffer solution was 1-5 μCi.
The heart was perfused for a period of 10 minutes and the perfusion solution was recycled through the heart. […] The heart was then weighed and the radioactivity in the heart measured with a Packard Cobra 5003 Gamma Scintillation counter. An aliquot of the K-H buffer was also weighed and counted. […]
The dual peptide gadolinium tetramer (Compound ID 803) was compared to GdDTPA. […] The amount of radioactivity added to the buffer solution was 1-5 μCi.

[2] = Biodistribution analysis in rats (heart and blood, radiotracer); type: in vivo, Sprague-Dawley rats; conditions: rat, 1 and 5 min post injection
Procedure: Concentration estimates were decay corrected. Studies were performed at least in duplicate.

[3] = system: perfused Langendorff rat heart; test: Washout kinetics from perfused Langendorff rat heart; conditions: 10 minutes perfusion with buffer after infusion
Procedure: A K-H buffer filled 20 Gauge needle was inserted into the apex of the heart penetrating into the bottom of the chamber. This was attached to a pressure transducer used to record and monitor heart function. Perfusion pressure (˜60 mmHg) was monitored using a second transducer. The heart was perfused at a constant flow rate of 10-12 mL/min with 37° C. […] The heart was paced at 300 beats/min.
A Langendorff rat heart preparation was perfused with K-H buffer at a rate of 10-12 mL/min. […] After the infusion was finished, the heart was either removed or perfusion was allowed to continue for an additional 10 minutes and then the heart was removed. The perfusion buffer was not recirculated through the heart. After removal of any connective tissue, the heart was opened, fluid in the chambers drained, and the interior blotted dry with filter paper. […] An aliquot of the K-H buffer was also weighed and counted. Concentration estimates were decay corrected. Studies were performed at least in duplicate.
A Langendorff rat heart preparation was perfused with K-H buffer at a rate of 10-12 mL/min. […] After the infusion was finished, the heart was either removed or perfusion was allowed to continue for an additional 10 minutes and then the heart was removed. The perfusion buffer was not recirculated through the heart. After removal of any connective tissue, the heart was opened, fluid in the chambers drained, and the interior blotted dry with filter paper. […] An aliquot of the K-5H buffer was also weighed and counted. Concentration estimates were decay corrected. Studies were performed at least in duplicate.

rat type I collagen = target: T1, rat type I collagen (Rattus norvegicus, UniProt P02454+P02466); test: MR phantom imaging of collagen gel samples at 4.7 T; conditions: centrifuged samples 4 and 8, 4.7 T
T1 construct: Rat collagen (acid soluble, type I, rat tail); purchased Upstate USA, Inc 08-115; host or cells: rat tail
T1 sequence (P02454 152-1207 limits assumed): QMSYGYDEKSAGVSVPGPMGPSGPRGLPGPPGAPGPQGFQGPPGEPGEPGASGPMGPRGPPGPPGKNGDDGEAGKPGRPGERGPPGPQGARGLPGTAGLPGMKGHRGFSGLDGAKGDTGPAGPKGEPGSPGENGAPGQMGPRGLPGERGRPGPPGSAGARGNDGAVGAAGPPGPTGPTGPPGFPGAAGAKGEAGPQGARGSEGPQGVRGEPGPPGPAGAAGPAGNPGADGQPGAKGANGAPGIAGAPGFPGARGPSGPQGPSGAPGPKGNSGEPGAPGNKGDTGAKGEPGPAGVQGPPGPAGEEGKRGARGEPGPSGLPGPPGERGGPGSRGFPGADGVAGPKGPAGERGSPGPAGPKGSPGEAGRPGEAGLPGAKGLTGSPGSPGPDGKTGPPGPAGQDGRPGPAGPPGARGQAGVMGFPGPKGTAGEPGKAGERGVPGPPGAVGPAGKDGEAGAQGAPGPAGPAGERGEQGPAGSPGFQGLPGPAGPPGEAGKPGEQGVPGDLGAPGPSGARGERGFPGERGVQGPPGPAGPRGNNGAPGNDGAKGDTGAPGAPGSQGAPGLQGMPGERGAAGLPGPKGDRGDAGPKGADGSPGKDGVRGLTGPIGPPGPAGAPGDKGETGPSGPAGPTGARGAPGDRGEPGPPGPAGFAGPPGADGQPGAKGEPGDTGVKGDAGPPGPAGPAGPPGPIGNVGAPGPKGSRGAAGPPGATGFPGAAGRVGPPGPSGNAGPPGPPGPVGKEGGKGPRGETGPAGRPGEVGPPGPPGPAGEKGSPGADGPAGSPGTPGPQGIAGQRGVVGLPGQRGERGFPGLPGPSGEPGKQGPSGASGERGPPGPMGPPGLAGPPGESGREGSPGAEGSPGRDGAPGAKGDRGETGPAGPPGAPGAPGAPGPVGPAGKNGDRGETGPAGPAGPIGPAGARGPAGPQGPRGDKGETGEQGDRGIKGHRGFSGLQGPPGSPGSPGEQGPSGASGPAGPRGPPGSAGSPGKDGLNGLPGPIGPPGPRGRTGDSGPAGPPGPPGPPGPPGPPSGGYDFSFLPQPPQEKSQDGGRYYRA
T1 sequence (P02466 86-1125 limits assumed): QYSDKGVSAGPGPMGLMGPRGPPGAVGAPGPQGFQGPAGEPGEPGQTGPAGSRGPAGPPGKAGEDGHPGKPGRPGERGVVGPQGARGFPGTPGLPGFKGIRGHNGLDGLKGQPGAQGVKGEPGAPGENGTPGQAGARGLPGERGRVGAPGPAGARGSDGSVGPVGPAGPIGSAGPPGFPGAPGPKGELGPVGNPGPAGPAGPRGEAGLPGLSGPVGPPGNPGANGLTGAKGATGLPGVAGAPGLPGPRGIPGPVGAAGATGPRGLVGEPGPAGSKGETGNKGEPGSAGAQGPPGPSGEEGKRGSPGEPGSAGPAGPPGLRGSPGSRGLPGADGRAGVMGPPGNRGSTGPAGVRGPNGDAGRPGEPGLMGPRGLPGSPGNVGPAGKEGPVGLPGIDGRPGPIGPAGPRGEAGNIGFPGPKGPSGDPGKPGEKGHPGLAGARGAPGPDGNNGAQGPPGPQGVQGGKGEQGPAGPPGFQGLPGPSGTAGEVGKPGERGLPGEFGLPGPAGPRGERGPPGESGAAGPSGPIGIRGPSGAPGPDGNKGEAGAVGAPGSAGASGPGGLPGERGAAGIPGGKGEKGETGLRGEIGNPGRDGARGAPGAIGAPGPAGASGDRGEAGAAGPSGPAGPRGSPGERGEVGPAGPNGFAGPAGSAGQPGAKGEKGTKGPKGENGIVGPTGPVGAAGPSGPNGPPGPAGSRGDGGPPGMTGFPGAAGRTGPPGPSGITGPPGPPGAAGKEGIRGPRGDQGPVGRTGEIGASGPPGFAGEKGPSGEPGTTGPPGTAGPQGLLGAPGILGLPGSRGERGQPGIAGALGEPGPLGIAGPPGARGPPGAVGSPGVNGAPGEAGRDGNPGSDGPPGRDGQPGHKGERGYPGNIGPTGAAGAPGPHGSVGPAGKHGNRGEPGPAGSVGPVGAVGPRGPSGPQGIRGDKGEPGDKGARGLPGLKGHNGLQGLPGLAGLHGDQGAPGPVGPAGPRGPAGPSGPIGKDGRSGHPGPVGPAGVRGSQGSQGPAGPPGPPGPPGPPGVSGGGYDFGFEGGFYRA
Procedure: (§1) Samples: • 1. […] Sample prepared as sample 2, but centrifuged to separate insoluble rat collagen gel • 5. Sample prepared as sample 3, but centrifuged to separate insoluble human collagen gel • 6. 27 μM GdDTPA solution in PBS, pH 7.4 • 7. 27 μM GdDTPA in a solution of 5.0 μM rat type I collagen in 10 mM phosphate buffer, pH 5 incubated at 37° C. overnight to form a gel • 8. Sample prepared as in sample 7, but centrifuged to separate insoluble rat collagen gel • 9. Homogeneous gel of 5 μM rat collagen • 10. Homogeneous gel of 7.5 μM human collagen
Samples for imaging were placed in glass tubes that were in turn placed in tubes containing water. Images were acquired at 4.7 T on a Bruker Biospec Imager using a Multi-Slice Multi-Echo Method with variable Relaxation Delay (MSMEVTR) experiment. The spin echo time and the relaxation delay were set to TE=11.2 ms and TR=500 ms, respectively with a flip angle of 30°. Images were acquired of sample 2, sample 4, sample 7, and sample 8. […] Sample 7 and 8 show uniform signal intensity.

human type I collagen = target: T2, human type I collagen (Homo sapiens, UniProt P02452+P08123); test: MR phantom study: T1 of samples in human collagen gel; type: physicochemical; conditions: in 7.5 μM human collagen gel; 10 μM Compound ID 1022; 0.47 Tesla, 37° C.
T2 construct: Acid soluble human collagen extracted from placenta; purchased Sigma C7774 (lot #083K375); host or cells: human placenta
T2 sequence (P02452 162-1218 limits assumed): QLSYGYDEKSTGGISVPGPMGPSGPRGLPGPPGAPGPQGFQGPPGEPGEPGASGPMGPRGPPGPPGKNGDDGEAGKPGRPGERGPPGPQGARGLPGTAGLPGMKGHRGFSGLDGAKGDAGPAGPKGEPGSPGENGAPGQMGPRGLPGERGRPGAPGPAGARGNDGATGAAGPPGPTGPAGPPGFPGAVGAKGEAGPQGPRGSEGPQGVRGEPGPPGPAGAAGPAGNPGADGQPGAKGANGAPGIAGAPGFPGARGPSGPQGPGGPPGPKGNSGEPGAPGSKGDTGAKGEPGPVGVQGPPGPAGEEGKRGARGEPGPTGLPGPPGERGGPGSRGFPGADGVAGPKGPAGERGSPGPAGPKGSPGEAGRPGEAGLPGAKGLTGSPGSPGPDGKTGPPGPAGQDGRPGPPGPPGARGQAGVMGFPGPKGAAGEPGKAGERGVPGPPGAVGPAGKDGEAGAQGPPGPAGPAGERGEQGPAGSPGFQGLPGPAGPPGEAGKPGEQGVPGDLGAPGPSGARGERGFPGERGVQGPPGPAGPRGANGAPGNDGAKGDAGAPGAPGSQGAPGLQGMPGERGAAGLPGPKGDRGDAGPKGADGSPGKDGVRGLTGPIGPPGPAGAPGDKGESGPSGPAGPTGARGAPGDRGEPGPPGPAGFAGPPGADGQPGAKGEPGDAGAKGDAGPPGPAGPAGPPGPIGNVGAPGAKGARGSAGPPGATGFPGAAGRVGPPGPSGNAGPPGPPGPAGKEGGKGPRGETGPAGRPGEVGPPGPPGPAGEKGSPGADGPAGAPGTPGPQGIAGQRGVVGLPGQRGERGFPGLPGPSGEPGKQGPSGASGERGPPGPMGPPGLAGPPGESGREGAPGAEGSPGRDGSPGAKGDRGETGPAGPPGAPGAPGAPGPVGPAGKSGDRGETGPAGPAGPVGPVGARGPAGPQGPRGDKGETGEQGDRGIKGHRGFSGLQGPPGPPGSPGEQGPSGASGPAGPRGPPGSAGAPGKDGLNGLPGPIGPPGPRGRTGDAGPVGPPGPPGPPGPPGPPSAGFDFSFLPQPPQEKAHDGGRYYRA
T2 sequence (P08123 80-1119 limits assumed): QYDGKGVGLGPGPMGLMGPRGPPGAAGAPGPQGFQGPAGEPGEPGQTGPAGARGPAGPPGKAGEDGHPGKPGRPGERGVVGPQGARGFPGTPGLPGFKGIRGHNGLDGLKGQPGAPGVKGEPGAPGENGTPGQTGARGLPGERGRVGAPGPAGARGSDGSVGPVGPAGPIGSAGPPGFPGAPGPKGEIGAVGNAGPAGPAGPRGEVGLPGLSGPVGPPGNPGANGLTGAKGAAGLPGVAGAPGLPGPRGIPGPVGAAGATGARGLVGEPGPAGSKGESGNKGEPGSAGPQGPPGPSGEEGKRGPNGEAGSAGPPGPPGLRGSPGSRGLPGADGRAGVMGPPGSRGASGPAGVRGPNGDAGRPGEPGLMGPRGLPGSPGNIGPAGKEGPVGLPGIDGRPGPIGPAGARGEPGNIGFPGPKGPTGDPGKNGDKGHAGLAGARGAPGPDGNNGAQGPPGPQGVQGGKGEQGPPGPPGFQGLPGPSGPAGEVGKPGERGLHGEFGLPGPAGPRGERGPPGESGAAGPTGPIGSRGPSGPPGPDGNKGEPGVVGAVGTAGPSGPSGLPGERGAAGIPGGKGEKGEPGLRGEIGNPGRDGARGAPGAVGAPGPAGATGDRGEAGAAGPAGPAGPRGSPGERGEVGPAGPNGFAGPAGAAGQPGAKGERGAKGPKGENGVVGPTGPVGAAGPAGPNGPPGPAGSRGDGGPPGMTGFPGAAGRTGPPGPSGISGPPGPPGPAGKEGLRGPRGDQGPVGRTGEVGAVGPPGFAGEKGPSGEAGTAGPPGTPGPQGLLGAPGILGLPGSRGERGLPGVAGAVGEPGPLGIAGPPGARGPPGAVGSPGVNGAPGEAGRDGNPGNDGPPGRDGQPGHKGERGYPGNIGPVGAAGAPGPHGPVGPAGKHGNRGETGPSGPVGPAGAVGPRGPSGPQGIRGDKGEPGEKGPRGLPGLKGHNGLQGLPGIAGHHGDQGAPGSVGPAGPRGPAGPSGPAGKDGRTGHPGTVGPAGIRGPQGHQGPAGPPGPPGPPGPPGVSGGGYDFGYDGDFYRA
Procedure: Acid soluble human collagen type I extracted from placenta (Sigma, cat #C7774, lot #083K375) was dissolved in 15 mM HCl (3.5 mg/mL) by vortexing and gently shaking for 3-4 hours at 4° C. The acid soluble collagen was dialyzed against PBS (pH 7.4). Protein concentration was determined by the BCA method (Pierce, Cat #23225) using bovine collagen (Vitrogen, cat #FXP-019) as a reference standard. The final collagen concentration for the stock solution was 9 μM.
as §1
T1 was determined for samples 1, 2, 3, 6, 7, 9, 10 at 0.47 Tesla using a Bruker NMS120 minispec NMR analyzer operating at 37° C.

C57BL/6 mouse [4] = conditions: 25 μmol/kg i.v. bolus
Procedure: A 28 g C57BL/6 mouse was anesthetized using a 2% mixture of isoflurane in oxygen and anesthesia was maintained with a 1% mixture. The mouse forelimbs were shaved and fitted with pediatric ECG leads (Blue Sensor, BRS-50-K/US, Ambu, Inc., Linthicum, MD). […] Temperature was maintained at 37° C. using tubing that contained circulating, thermostated water. An i.v. line was implanted in the tail vein and the mouse was placed in the magnet.
(§2) Images were acquired on a Varian 4.7-T Inova scanner. A cardiac-gated gradient echo inversion recovery sequence was used whereby the inversion time was set to null the signal from the myocardium. The inversion pulse was a non-selective sinc pulse with a TI of 430 ms and TR of 3 seconds. The excitation is slice selective at 90 degrees and 3 to 4 lines were acquired per TR. Scan time was 4-5 minutes.
(§3) Baseline images were acquired. Typically 3-4 short-axis slices were acquired. […] Imaging was repeated out to an hour post injection.
Four ROIs were measured in the myocardium and in the left ventricle and the average measurements was taken. Signal to noise ratios (SNR) were calculated as signal intensity in myocardium or blood divided by the standard deviation of the noise. […] Contrast to noise ratios (CNR) for myocardium relative to blood pool was also calculated as: CNR=(SImyocardium−SIblood)/(SDnoise).

C57BL/6 mouse [5] = conditions: 7-day old infarction, 25 μmol/kg i.v. bolus
Procedure: A myocardial infarct (MI) was induced in a 28 g C57BL/6 mouse by a 1-hr occlusion of the left anterior descending coronary artery, followed by reperfusion. The mouse was allowed to recover. Seven days post MI, the mouse was anesthetized using a 2% mixture of isoflurane in oxygen and anesthesia was maintained with a 1% mixture. The mouse forelimbs were shaved and fitted with pediatric ECG leads (Blue Sensor, BRS-50-K/US, Ambu, Inc., Linthicum, Md.). […] Temperature was maintained at 37° C. using tubing that contained circulating, thermostated water. An i.v. line was implanted in the tail vein and the mouse was placed in the magnet.
as §2, §3

[6] = 10 μmol/kg
[7] = 40 day old infarcts, 50 min post-injection, two animals, listed as Compound ID NO. 800

## Q W T C S G D A Y T W H C N Y E (GQWTCSGDAYTWHCNYE; disulfide 5-14 (inferred)) [SEQ ID NO: 144, -G- Linker at the N-terminus]
[1]
  heart uptake compared with GdDTPA: about 10 times
[2]
  heart uptake relative to GdDTPA control: positive uptake in the heart relative to the GdDTPA negative control
[3]
  percent of compound present at 0 minutes post infusion that remains at 10 minutes: 68%

## Glu-DTPA-Gd-G.Q.W.H.C.T.T.R.F.P.H.H.Y.C.L.Y.G-PEG-H ({Glu‑DTPA‑Gd}-GQWHCTTRFPHHYCLYG; disulfide 5-14 (inferred); not fully specified (C-terminus)) [SEQ ID NO: 186]
Rat type I collagen
  signal of centrifuged collagen gel relative to supernatant: the pellet for sample 4 was much brighter than the supernatant
Human type I collagen
  T1: 2.100 s

## CC(C)C[C@H](NC(=O)[C@@H]1CSSC[C@H](NC(=O)[C@H](Cc2c[nH]cn2)NC(=O)[C@H](Cc2c[nH]c3ccccc23)NC(=O)[C@H](CCCCNC(=O)CNC(=S)Nc2ccc(C[C@@H](CN(CCN(CC(=O)O)CC(=O)O)CC(=O)O)N(CC(=O)O)CC(=O)O)cc2)NC(=O)CNC(=S)Nc2ccc(C[C@@H](CN(CCN(CC(=O)O)CC(=O)O)CC(=O)O)N(CC(=O)O)CC(=O)O)cc2)C(=O)N[C@@H]([C@@H](C)O)C(=O)N[C@@H]([C@@H](C)O)C(=O)N[C@@H](CCCCNC(=S)Nc2ccc(C[C@@H](CN(CCN(CC(=O)O)CC(=O)O)CC(=O)O)N(CC(=O)O)CC(=O)O)cc2)C(=O)N[C@@H](Cc2ccccc2)C(=O)N2CCC[C@H]2C(=O)N[C@@H](Cc2c[nH]cn2)C(=O)N[C@@H](Cc2c[nH]cn2)C(=O)N[C@@H](Cc2ccc(O)cc2)C(=O)N1)C(=O)N[C@@H](Cc1ccc(O)cc1)C(=O)N[C@@H](Cc1ccc(-c2ccccc2)cc1)C(N)=O [Compound ID 800]
C57BL/6 mouse [4]
  persistence of myocardial enhancement: at least 1 hour
C57BL/6 mouse [4]; 4.7-T
  enhancement of the myocardium: positive enhancement of the myocardium
C57BL/6 mouse [5]
  enhancement of myocardium and infarcted zones: positive enhancement of the myocardium and hyperenhancement of infarcted zones
  persistence of enhancement: at least 1 hour
C57BL/6 mice; 7 day, 40 day or 210 day infarcts, 25 μmol/kg intravenous
  MR enhancement of infarct zone versus viable myocardium: infarct zone as hyperintense relative to the normal, viable myocardium
C57BL/6 mice; [7]
  gadolinium concentration, blood: 27.8 nmol Gd/g and 14.6 nmol Gd/g
  tissue gadolinium concentration, scar: 137 nmol Gd/g and 122 nmol Gd/g
[6]
  retention of gadolinium in the heart: ≥ 30 min
[6]; 1 minute post injection
  Gadolinium concentration in the heart: 23.9±7.8
